This passage reports IC50 and change in vivo results from patent US4812462A, “4,5,6,7-tetrahydro-1H-imidazo[4,5-c]pyridine-6-carboxylic acid analogs having antihypertensive activity” (Warner-Lambert Company, priority 1986, dated 1989).

The target in assay [1] is angiotensin II binding to rat adrenal receptor preparations. Nature of the assay: inhibition of 125I-angiotensin II binding to rat adrenal receptor preparations.
Assay [2] deals with 2 kidney, 1-clip Goldblatt hypertensive rat (RHR). Nature of the assay: blood pressure lowering in conscious 2 kidney, 1-clip Goldblatt (renal) hypertensive rats (RHR), AHP3. Type of assay: in vivo. To be noted: 30 mg/kg ip, read-out: Max % decrease in blood pressure, 30 mg/kg ip in RHR. As for the experimental part:
Thus, for example, compounds of formula I when administered intraperitoneally or orally to 2 kidney, 1-clip Goldblatt (renal) hypertensive rats (See S Sen, et al., "Role of Renin-Angiotensin System in Chronic Renal Hypertensive Rats," Hypertension 1:427-434 (1979) and Clin. Soc. 57:53-62, 1979, "Antihypertensive Effect of Prolonged Blockade of Angiotensin Formation in Benign and Malignant, one-and two-kidney Goldblatt Hypertensive Rats".) at doses in the range of 1-100 mg/kg cause 10-80 mmHg drops in blood pressure. […] Angiotensin binding inhibition activity and blood pressure lowering activity in renal hypertensive rats of the optimally substituted examples of formula I are listed in Table 1. Blood pressure lowering activity in spontaneously hypertensive rats of optimally substituted examples of formula II are listed in Table 2.
[…] EVALUATION (AHP3)
A Method for the Direct Monitoring of Aortic Blood Pressure and Heart Rate from Conscious Rats
The continuous monitoring of pulsatile blood pressure (BP) from unrestrained conscious rats surgically equipped with polyethylene cannulas was accomplished by means of a computer assisted data capture scheme (CADCS). The basic elements of the methodology are the cannulation procedure and the CADCS.
Rats were anesthetized with Telazol (1:1 tiletamine HCl and zolazepam HCl); 20-40 mg/kg IM and the descending aorta exposed via a midline incision. Cannulas fabricated from polyethylene tubing were inserted into the aorta via an undersized puncture hole below the renal arteries. The puncture hole was made by a 23 G disposable needle with a section of the aorta clamped off above and below the puncture site. The cannulas, consisting of a PE100 (0.86 mm ID) body and a PE50 (0.58 mm ID) tip, were attached to a trocar, inserted through the psoas muscle, and passed subcutaneously along the midline of the back and externalized between the ears. The cannulas were anchored to the psoas muscle and between the scalulae (3-0 green braided suture). The midline incision was closed in two steps (muscle first, skin second) using continuous over-and-over sutures (4-0 chronic). Each rat was then given penicillin 30,000 units subcutaneously (Penicillin G Procaine Sterile Suspension).
The rats were fitted with a harness-springswivel assembly designed to protect the cannula and to provide the rat relative freedom of movement. The harnesses were fabricated from nylon hook and loop tape cemented to a metal plate to which spring wires (18-8 stainless steel), were attached to brass swivels. Each polyethylene cannula was channeled through a spring and connected through a swivel to a pressure transducer (Model P23Gb; Statham Instruments; Hato Rey, Puerto Rico) and an infusion pump (Sage model 234-7; Orion Research, Cambridge, Mass.) by means of PE100 tubing. While on test, each rat received a continuous slow infusion of heparinized saline solution (approximately 0.40 ml or 40 units of heparin per 24 hr period) to prevent clot formation. Additional "flushes" of the cannula with heparinized saline were carried out when the aortic pulse pressure (systolic minus diastolic) was less than 25 mm Hg.
The pulsatile blood pressure of each of 32 rats was monitored continuously by two signal conditioning units (Gould, Clev., Ohio). The signals from these units were monitored and digital data for mean, systolic, and diastolic blood pressures as well as for heart rate were calculated every 5 min by two in-laboratory computers (Hewlett Packard, Cupertino, Calif.). These in-laboratory computers have the capacity to store 32 days of this 5 min data. Communication with the mainframe research computer (IBM 3083) from the two inlaboratory computers allowed for data analysis and report generation. […]

As for `O=C(O)C1Cc2c(ncn2CCC23CC4CC(CC(C4)C2)C3)CN1C(=O)C(c1ccccc1)c1ccccc1` (stereo not shown) [Example 2, 1-(2-(1-Adamantyl)ethyl)-5-diphenylacetyl-4,5,6,7-tetrahydro-1H-imidazo[4,5-c]pyridine-6-carboxylic acid], in assay [1], the IC50 is 0.1 µM. Further, the change in vivo at 30 mg/kg in assay [2] is -26%.
On the same counts, the results for `O=C(O)C1Cc2c(ncn2Cc2ccccc2O)CN1C(=O)C(c1ccccc1)c1ccccc1` (stereo not shown) [Example 17, 1-(2-Hydroxyphenyl)methyl-5-diphenylacetyl-4,5,6,7-tetrahydro-1H-imidazo[4,5-c]pyridine-6-carboxylic acid] are 0.69 µM and -21%.
On the same counts, the results for `COc1ccc(Cn2cnc3c2CC(C(=O)O)N(C(=O)C(c2ccccc2)c2ccccc2)C3)cc1C` (stereo not shown) [Example 19, 1-(3-Methyl-4-methoxyphenyl)methyl-5-diphenylacetyl-4,5,6,7-tetrahydro-1H-imidazo[4,5-c]-pyridine-6-carboxylic acid] are 0.07 µM and -14%.
In the case of `O=C(O)[C@@H]1Cc2c(ncn2Cc2ccccc2)CN1C(=O)C(c1ccc(F)cc1)c1ccc(F)cc1` [Example 23, (S)-5-[bis(4-fluorophenyl)acetyl]-4,5,6,7-tetrahydro-1-(phenylmethyl)-1H-imidazo[4,5-c]pyridine-6-carboxylic acid], the half-inhibitory concentration (IC50) in assay [1] was 2.1 µM. The change in vivo at 30 mg/kg in assay [2] was -22%.
In the same order, the values of `COc1ccc(Cn2cnc3c2C[C@@H](C(=O)O)N(C(=O)CC2CCCCC2)C3)cc1C` [Example 26, (S)-5-(cyclohexylacetyl)-4,5,6,7-tetrahydro-1-[(4-methoxy-3-methylphenyl)methyl]-1H-imidazo-[4,5-c]-pyridine-6-carboxylic acid] are 2 µM and -18%.
